Experimental data reported in patent publication US10073099B2, “Methods and diagnostics for cancer detection and treatment monitoring” (University of New England, priority 2015, dated 2018).
Counter-ions that a name gives are not always drawn.

Legend:
[1] = test system: ER− 3D spheroids; assay: Medium NOHA level of 3D spheroids by ELISA in the presence of inhibitors; format: cell-based
Protocol: FIGS. 8A-8D present an analysis of medium NOHA level by ELISA in the presence or absence of inhibitors.
The following inhibitory tests were performed to determine their role (and/or regulatory effect) on extra-tumoral NOHA accumulation. While NOHA is generated by NOS2 during nitric oxide production, it can be utilized in a NOS2 independent mechanism for nitric oxide generation, that could involve myeloperoxidase (MPO) mediated oxidation or cytochrome P450 reductase mediated pathway.

[2] = test system: MPO, Cytochrome P450 reductase; assay: MPO and Cytochrome P450 reductase expression and activity after Arginase activity inhibition; format: cell-based; conditions: after Arginase activity inhibition with 5 nM ABH
Description: FIG. 12A and FIG. 12B present analysis of cytochrome P450 reductase; FIG. 12A presents a graph showing expression; FIG. 12B presents a graph showing activity. #, represents significance from ER+ and control groups; and ^, represents significance from ER−[CA] groups. n=4. P<0.01
FIG. 13A and FIG. 13B present analysis of MPO; FIG. 13A presents a graph showing expression; FIG. 13B presents a graph showing activity. #, represents significance from ER+ and control groups; and ^, represents significance from ER−[CA] groups. n=4. P<0.01.
The following inhibitory tests were performed to determine their role (and/or regulatory effect) on extra-tumoral NOHA accumulation. While NOHA is generated by NOS2 during nitric oxide production, it can be utilized in a NOS2 independent mechanism for nitric oxide generation, that could involve myeloperoxidase (MPO) mediated oxidation or cytochrome P450 reductase mediated pathway. Since NOHA is known to be a strong inhibitor of Arginase, and Arginase increase would favor tumor proliferation, the role of Arginase was also explored.

[3] = NOHA stability analysis over temperature in extracellular matrix medium of 3D spheroids, LC-MS; format: physicochemical
Protocol: Extracellular matrix medium from cancerous and non-cancerous 3D spheroid (viz., 300 μl/spheroid cell line), that was collected on day 7 after spheroid formation were divided in to six (6) equal volumes of 50 μl each. Each of the 50-μl fractions/spheroid cell lines were incubated at −80° C., −20° C., 4° C., 25° C., 37° C. and 42° C. for 1, 3, 5, 7, 10, 12, and 14 days. At the end of the incubation, NOHA level was monitored by LC-MS (Tables 4.1-4.6).
Those medium samples that were incubated at higher temperature of 42° C. suffered the most with NOHA stability, which lasted for only 3 days (Table 4.4).
Tables 4.1-4.6: NOHA measurements after incubation at various temperatures

[4] = NOHA stability analysis by ELISA, in vitro medium spiked with NOHA; format: physicochemical; conditions: medium spiked with 75 pg/ml NOHA
Protocol: FIG. 6A presents an In Vitro medium NOHA stability analysis based on incubation duration and temperature condition for up to 6 weeks. n=4.
ELISA Method. 50 μl of NOHA standard sample concentration prepared in Locke's buffer (viz., 10 mM HEPES, 5.6 mM KCl, 154 mM NaCl, 5.6 mM glucose, 1.2 mM MgCl2, 2.3 mM CaCl2, pH 7.4) was mixed with 50 μl of primary NOHA antibody serum (at 1:200 dilution, Pierce Thermo Fisher) and incubated for 30 min at 4° C. The mixture was added to a 96 well plate pre-coated with […] (at 100 pg/ml concentration, in Locke's buffer). The plate was then incubated for 1 hour on a plate-rotator at 500 rpm, at 2-8° C. After incubation, the well content was aspirated, and the wells were washed three times with 200 μl ice-cold wash buffer (10 mM phosphate buffer pH 7.4, 150 mM NaCl, 0.05% Tween 20). 100 μl of enzyme conjugated secondary antibody (at 1:20,000 dilution in wash buffer) was added, and incubated for 1 hour on a plate rotator at 500 rpm, at 2-8° C. At the end of this incubation, the wells were washed again three times with 200 μl ice-cold wash buffer. […] The plates were then read at 450 nm, within 10 min after adding stop solution.
In vitro medium. To analyze NOHA stability via ELISA assay, medium was spiked with 75 pg/ml of NOHA and NOHA recovery was determined over 6 weeks at different temperatures (viz., −80° C., −20° C., 4° C., 25° C., 37° C. and 42° C.). […]

For `N[C@@H](CCCCB(O)O)C(=O)O` [ABH, 2(s)-amino-6-boronohexanoic acid], the “change in medium NOHA level” value ([1]; 5 nM ABH, versus absence of ABH) was “no significant disease specific or ethnic specific change”, the “increase in Cytochrome P450 reductase expression and activity” value [2] was at least 0.98 and the “increase in MPO expression and activity” value [2] was at least 1.2 fold.

In the case of `NC(=NCCC[C@H](N)C(=O)O)NO` [NOHA, N^w-hydroxy-L-Arginine], the “degradation or reduction in NOHA level” value ([3]; extracellular matrix medium at 4° C., −20° C., and −80° C., 14-day incubation) was “no significant degradation or reduction”, the “duration of stable NOHA monitoring level” value ([3]; medium samples incubated at 25° C.) was 12 days and the “duration of NOHA stability” value ([3]; medium samples incubated at 42° C.) was 3 days. For the same compound, the “duration of stable NOHA monitoring” value ([3]; medium samples stored at 37° C.) was “up to 7 days”, the “period over which NOHA was stable” value ([4]; 4° C. and below (4, −20, −80° C.)) was 6 week and the “period over which NOHA maintained stability” value ([4]; 25° C., 37° C. and 42° C.) was 1 week.

With `Clc1ccc(COC(Cn2ccnc2)c2ccc(Cl)cc2Cl)c(Cl)c1` (centres unmarked) [micronazole salt] the “increase in medium NOHA level” value ([1]; ER−[AA], 10 μM inhibitor, over a 9 week period) was at least 0.79 fold and the “NOHA increase in the medium” value ([1]; ER−[CA], 10 μM inhibitor, over a 9 week period) was at least 0.42 fold.
